Test results as given in ChEMBL document CHEMBL1833794, “Synthesis and biological evaluation of 1-substituted-3-(6-methylpyridin-2-yl)-4-([1,2,4]triazolo[1,5-a]pyridin-6-yl)pyrazoles as transforming growth factor-β type 1 receptor kinase inhibitors” (Bioorg Med Chem Lett, 2011).

How the values were obtained:
Details in all cases: in vivo
[1] = Oral bioavailability in rhesus monkey at 5.5 mg/kg; type: ADME, organism-based, Macaca mulatta
[2] = Oral bioavailability in rat at 50.3 mg/kg; type: ADME, organism-based
[3] = Oral bioavailability in dog at 5.5 mg/kg; type: ADME, organism-based, Canis lupus familiaris
[4] = Oral bioavailability in mouse at 50.3 mg/kg; type: ADME, organism-based

bioavailability [1]: 34.4% | bioavailability [2]: 11.4% | bioavailability [3]: 84.9% | bioavailability [4]: 8.95%
Compound: Cc1cccc(-c2[nH]c(Cc3cccc(C(N)=O)c3)nc2-c2ccc3nccnc3c2)n1
